From ChEMBL document CHEMBL5528028, “Discovery of benzopyridone cyanoacetates as new type of potential broad-spectrum antibacterial candidates” (Eur J Med Chem, 2024)
In brackets after ≈: the same amount, converted by molar mass.

Assays:
Format in all cases: functional
[1] = test system: Enterococcus faecalis; experiment: Antibacterial activity against Enterococcus faecalis assessed growth inhibition by micro broth dilution method
[2] = test system: Staphylococcus aureus; experiment: Antibacterial activity against Staphylococcus aureus ATCC 29213 assessed growth inhibition by micro broth dilution method
[3] = test system: Escherichia coli; experiment: Antibacterial activity against Escherichia coli assessed growth inhibition by micro broth dilution method
[4] = test system: Acinetobacter baumannii; experiment: Antibacterial activity against Acinetobacter baumannii assessed growth inhibition by micro broth dilution method
[5] = test system: Escherichia coli; experiment: Antibacterial activity against Escherichia coli ATCC 25922 assessed growth inhibition by micro broth dilution method
[6] = test system: Staphylococcus aureus; experiment: Antibacterial activity against Staphylococcus aureus assessed growth inhibition by micro broth dilution method
[7] = test system: Klebsiella pneumoniae; experiment: Antibacterial activity against Klebsiella pneumonia assessed growth inhibition by micro broth dilution method
[8] = test system: Staphylococcus aureus; experiment: Antibacterial activity against Staphylococcus aureus ATCC 25923 assessed growth inhibition by micro broth dilution method
[9] = test system: Pseudomonas aeruginosa; experiment: Antibacterial activity against Pseudomonas aeruginosa ATCC 27853 assessed growth inhibition by micro broth dilution method
[10] = test system: Staphylococcus aureus; experiment: Antibacterial activity against methicillin-resistant Staphylococcus aureus assessed growth inhibition by micro broth dilution method
[11] = test system: Pseudomonas aeruginosa; experiment: Antibacterial activity against Pseudomonas aeruginosa assessed growth inhibition by micro broth dilution method

Row | Structure (SMILES) | MIC [1] | MIC [2] | MIC [3] | MIC [4] | MIC [5] | MIC [6] | MIC [7] | MIC [8] | MIC [9] | MIC [10] | MIC [11]
1 | CCOC(=O)c1cn(CC)c2c(F)c(F)c(F)cc2c1=O | 128 µg/mL (≈ 428 µM) | 128 µg/mL (≈ 428 µM) | 8 µg/mL (≈ 26.7 µM) | 32 µg/mL (≈ 107 µM) | 64 µg/mL (≈ 214 µM) | 32 µg/mL (≈ 107 µM) | 32 µg/mL (≈ 107 µM) | 64 µg/mL (≈ 214 µM) | 256 µg/mL (≈ 855 µM) | 128 µg/mL (≈ 428 µM) | 32 µg/mL (≈ 107 µM)
2 | CCOC(=O)c1cn(CC2CCCC2)c2cc(F)c(F)cc2c1=O | 256 µg/mL (≈ 763 µM) | 128 µg/mL (≈ 382 µM) | 8 µg/mL (≈ 23.9 µM) | 256 µg/mL (≈ 763 µM) | 128 µg/mL (≈ 382 µM) | 64 µg/mL (≈ 191 µM) | 32 µg/mL (≈ 95.4 µM) | 16 µg/mL (≈ 47.7 µM) | 256 µg/mL (≈ 763 µM) | 256 µg/mL (≈ 763 µM) | 128 µg/mL (≈ 382 µM)
3 | CCOC(=O)c1cn(Cc2ccccc2Cl)c2cc(F)c(F)cc2c1=O | 4 µg/mL (≈ 10.6 µM) | 256 µg/mL (≈ 678 µM) | 2 µg/mL (≈ 5.29 µM) | 32 µg/mL (≈ 84.7 µM) | 128 µg/mL (≈ 339 µM) | 128 µg/mL (≈ 339 µM) | 32 µg/mL (≈ 84.7 µM) | 256 µg/mL (≈ 678 µM) | 256 µg/mL (≈ 678 µM) | 256 µg/mL (≈ 678 µM) | 256 µg/mL (≈ 678 µM)
4 | CCOC(=O)c1cn(CC=C(C)C)c2cc([C-](C#N)C(=O)OCC)c(F)cc2c1=O.[Na+] (configuration not stated) | 256 µg/mL | 8 µg/mL | 256 µg/mL | 256 µg/mL | 8 µg/mL | 256 µg/mL | 8 µg/mL | 0.5 µg/mL | 8 µg/mL | 256 µg/mL | 256 µg/mL
5 | CCOC(=O)c1cn(Cc2ccccc2)c2cc([C-](C#N)C(=O)OCC)c(F)cc2c1=O.[Na+] (configuration not stated) | 64 µg/mL | 4 µg/mL | 4 µg/mL | 8 µg/mL | 2 µg/mL | 64 µg/mL | 4 µg/mL | 0.5 µg/mL | 4 µg/mL | 256 µg/mL | 32 µg/mL
6 | CCOC(=O)c1cn(C)c2cc(F)c(F)cc2c1=O | 128 µg/mL (≈ 479 µM) | 128 µg/mL (≈ 479 µM) | 16 µg/mL (≈ 59.9 µM) | 256 µg/mL (≈ 958 µM) | 128 µg/mL (≈ 479 µM) | 128 µg/mL (≈ 479 µM) | 64 µg/mL (≈ 239 µM) | 256 µg/mL (≈ 958 µM) | 256 µg/mL (≈ 958 µM) | 256 µg/mL (≈ 958 µM) | 64 µg/mL (≈ 239 µM)
7 | CCOC(=O)C(C#N)c1c(F)cc2c(=O)c(C(=O)O)cn(CC)c2c1F (configuration not stated) | 128 µg/mL (≈ 351 µM) | 32 µg/mL (≈ 87.8 µM) | 64 µg/mL (≈ 176 µM) | 0.5 µg/mL (≈ 1.37 µM) | 2 µg/mL (≈ 5.49 µM) | 16 µg/mL (≈ 43.9 µM) | 4 µg/mL (≈ 11 µM) | 32 µg/mL (≈ 87.8 µM) | 4 µg/mL (≈ 11 µM) | 16 µg/mL (≈ 43.9 µM) | 64 µg/mL (≈ 176 µM)
8 | CCOC(=O)c1cn(C2CC2)c2cc(C(C#N)C(=O)OCC)c(F)cc2c1=O (configuration not stated) | 32 µg/mL (≈ 82.8 µM) | 32 µg/mL (≈ 82.8 µM) | 32 µg/mL (≈ 82.8 µM) | 32 µg/mL (≈ 82.8 µM) | 32 µg/mL (≈ 82.8 µM) | 16 µg/mL (≈ 41.4 µM) | 8 µg/mL (≈ 20.7 µM) | 8 µg/mL (≈ 20.7 µM) | 64 µg/mL (≈ 166 µM) | 128 µg/mL (≈ 331 µM) | 8 µg/mL (≈ 20.7 µM)
9 | CCOC(=O)c1cn(Cc2ccc(Cl)c(Cl)c2)c2cc(C(C#N)C(=O)OCC)c(F)cc2c1=O (configuration not stated) | 16 µg/mL (≈ 31.7 µM) | 0.25 µg/mL (≈ 0.495 µM) | 8 µg/mL (≈ 15.8 µM) | 2 µg/mL (≈ 3.96 µM) | 4 µg/mL (≈ 7.92 µM) | 4 µg/mL (≈ 7.92 µM) | 1 µg/mL (≈ 1.98 µM) | 1 µg/mL (≈ 1.98 µM) | 2 µg/mL (≈ 3.96 µM) | 8 µg/mL (≈ 15.8 µM) | 0.5 µg/mL (≈ 0.989 µM)
10 | CCn1cc(C(=O)O)c(=O)c2cc(F)c(N3CCNCC3)cc21 [NORFLOXACIN] | 8 µg/mL (≈ 25.1 µM) | 4 µg/mL (≈ 12.5 µM) | 4 µg/mL (≈ 12.5 µM) | 2 µg/mL (≈ 6.26 µM) | 4 µg/mL (≈ 12.5 µM) | 8 µg/mL (≈ 25.1 µM) | 8 µg/mL (≈ 25.1 µM) | 8 µg/mL (≈ 25.1 µM) | 8 µg/mL (≈ 25.1 µM) | 8 µg/mL (≈ 25.1 µM) | 8 µg/mL (≈ 25.1 µM)
11 | CCOC(=O)c1cn(C)c2cc([C-](C#N)C(=O)OCC)c(F)cc2c1=O.[Na+] (configuration not stated) | 32 µg/mL | 64 µg/mL | 32 µg/mL | 32 µg/mL | 16 µg/mL | 128 µg/mL | 32 µg/mL | 1 µg/mL | 32 µg/mL | 64 µg/mL | 32 µg/mL
12 | CCOC(=O)c1cn(Cc2cccc(Cl)c2)c2cc(F)c(F)cc2c1=O | 2 µg/mL (≈ 5.29 µM) | 128 µg/mL (≈ 339 µM) | 1 µg/mL (≈ 2.65 µM) | 4 µg/mL (≈ 10.6 µM) | 64 µg/mL (≈ 169 µM) | 64 µg/mL (≈ 169 µM) | 32 µg/mL (≈ 84.7 µM) | 64 µg/mL (≈ 169 µM) | 32 µg/mL (≈ 84.7 µM) | 256 µg/mL (≈ 678 µM) | 256 µg/mL (≈ 678 µM)
